The values below come from ChEMBL document CHEMBL6087464, “Design, Synthesis, and Biological Evaluation of 3,4-Dihydroisoquinolin-1(2H)-one Derivatives as Protein Arginine Methyltransferase 5 Inhibitors for the Treatment of Non-Hodgkin's Lymphoma” (J Med Chem, 2025).

Calls of active or inactive are those of the source.

Data set [1] can be described thus: Toxicity in Sprague-Dawley rat assessed as body weight loss at 31.25 to 125 mg/kg, po administered once a day for 14 days. Format: organism-based. Conditions: in vivo, 336 h, dose 31.25-125 mg/kg, time 14 day.
For data set [2], the target named is Cytochrome P450 1A2 (Homo sapiens, UniProt P05177). Put plainly: Inhibition of CYP1A2 (unknown origin). The data set is classed as ADME.
Sequence of Cytochrome P450 1A2 (P05177 whole entry): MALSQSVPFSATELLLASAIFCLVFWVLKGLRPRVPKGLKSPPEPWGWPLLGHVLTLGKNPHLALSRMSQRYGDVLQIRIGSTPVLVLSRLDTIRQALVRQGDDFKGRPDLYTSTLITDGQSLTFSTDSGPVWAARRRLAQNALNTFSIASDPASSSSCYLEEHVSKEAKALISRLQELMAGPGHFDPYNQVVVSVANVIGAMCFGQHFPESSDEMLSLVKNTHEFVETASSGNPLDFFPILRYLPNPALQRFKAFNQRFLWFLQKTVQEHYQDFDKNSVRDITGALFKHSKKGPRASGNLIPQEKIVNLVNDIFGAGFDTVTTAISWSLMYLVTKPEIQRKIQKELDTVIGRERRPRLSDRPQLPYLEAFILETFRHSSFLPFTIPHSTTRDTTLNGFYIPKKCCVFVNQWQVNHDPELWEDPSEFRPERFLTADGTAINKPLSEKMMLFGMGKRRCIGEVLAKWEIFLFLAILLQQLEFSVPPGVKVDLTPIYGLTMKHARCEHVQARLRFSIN
Data set [3] relates to Z-138. Put plainly: Antitumor activity against human Z138 cells xenografted in female SCID.BG nude mouse assessed as tumor growth inhibition at 12.5 mg/kg, po administered twice a day for 21 days relative to control. Format: functional. The conditions noted are these: Z-138, 504 h, time 21 day, read-out: TGI. (In general: A xenograft is tissue or cells of one species grown in another, often human tumour cells in immunodeficient mice.)

For data set [4], the target named is Protein arginine N-methyltransferase 5 (Homo sapiens) (UniProt O14744). Put plainly: In vivo inhibition of PRMT5 in female SCID.BG nude mouse xenografted with human Z138 cells assessed as decrease in SmD3me2s level at 12.5 to 50 mg/kg, po administered twice a day for 21 days by Western blotting analysis. The data set is classed as functional, organism-based. The conditions noted are these: dose 12.5-50 mg/kg, time 21.0 day.
Sequence of Protein arginine N-methyltransferase 5 (Homo sapiens) (O14744 whole entry): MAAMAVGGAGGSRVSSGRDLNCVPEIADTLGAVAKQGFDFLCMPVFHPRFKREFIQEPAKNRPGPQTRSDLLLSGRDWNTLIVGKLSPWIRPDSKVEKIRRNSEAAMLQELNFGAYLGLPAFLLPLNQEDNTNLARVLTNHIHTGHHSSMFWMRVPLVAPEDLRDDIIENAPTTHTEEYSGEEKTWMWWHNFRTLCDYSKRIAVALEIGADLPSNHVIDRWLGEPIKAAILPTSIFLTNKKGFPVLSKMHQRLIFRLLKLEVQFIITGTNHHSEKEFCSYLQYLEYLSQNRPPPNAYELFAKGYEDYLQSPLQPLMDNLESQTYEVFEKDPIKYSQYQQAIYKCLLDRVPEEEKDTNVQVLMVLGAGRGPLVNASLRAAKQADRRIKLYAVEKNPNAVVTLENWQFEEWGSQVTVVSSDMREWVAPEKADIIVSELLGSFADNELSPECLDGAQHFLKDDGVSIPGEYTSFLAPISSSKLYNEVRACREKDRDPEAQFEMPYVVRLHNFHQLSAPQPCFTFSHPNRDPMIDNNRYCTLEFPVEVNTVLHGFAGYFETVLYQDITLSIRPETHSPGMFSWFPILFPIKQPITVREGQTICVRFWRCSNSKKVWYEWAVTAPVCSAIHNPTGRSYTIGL

The subject of data set [5] is A-427. Briefly: Antiproliferative activity against human A-427 cells measured after 4 to 5 days by CCK-8 assay. The data set is classed as functional, cell-based.
Data set [6] addresses Cytochrome P450 2D6 (Homo sapiens, UniProt P10635). Briefly: Inhibition of CYP2D6 (unknown origin). The data set is classed as ADME.
Data set [7] in a line: Toxicity in Sprague-Dawley rat assessed as morphological changes in stomach at 31.25 to 125 mg/kg, po administered once a day for 14 days by H and E staining based analysis. Format: organism-based. Conditions: in vivo, 336 h, dose 31.25-125 mg/kg, time 14 day.
Data set [8] is described as follows: Protein binding in Sprague-Dawley rat plasma. The data set is classed as ADME, cell-free. Conditions: read-out: PPB (converted).
Data set [9] deals with Cytochrome P450 2C19 (Homo sapiens, UniProt P33261). Put plainly: Inhibition of CYP2C19 (unknown origin). The data set is classed as ADME.
Sequence of Cytochrome P450 2C19 (P33261 whole entry): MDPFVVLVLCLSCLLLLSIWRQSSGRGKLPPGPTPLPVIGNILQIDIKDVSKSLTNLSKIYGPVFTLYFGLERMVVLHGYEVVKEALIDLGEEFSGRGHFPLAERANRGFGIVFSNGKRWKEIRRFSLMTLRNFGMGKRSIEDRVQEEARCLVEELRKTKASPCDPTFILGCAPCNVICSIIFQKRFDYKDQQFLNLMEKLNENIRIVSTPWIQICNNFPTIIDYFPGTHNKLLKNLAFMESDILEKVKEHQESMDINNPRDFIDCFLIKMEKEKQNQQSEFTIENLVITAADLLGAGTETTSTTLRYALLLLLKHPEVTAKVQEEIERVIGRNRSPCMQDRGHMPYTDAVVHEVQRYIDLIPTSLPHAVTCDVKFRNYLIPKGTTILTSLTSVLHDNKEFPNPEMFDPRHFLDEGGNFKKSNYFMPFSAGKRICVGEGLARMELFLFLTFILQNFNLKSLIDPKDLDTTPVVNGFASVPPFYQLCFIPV
Data set [10] is described as follows: Toxicity in Sprague-Dawley rat assessed as morphological changes in bone marrow at 31.25 to 125 mg/kg, po administered once a day for 14 days by H and E staining based analysis. The data set is classed as organism-based. The conditions noted are these: in vivo, 336 h, dose 31.25-125 mg/kg, time 14 day.
For data set [11], the target named is T1, PRMT5/MEP50 complex (Homo sapiens, UniProt O14744+Q9BQA1). Briefly: Binding affinity to PRMT5/MEP50 (unknown origin) assessed as dissociation rate constant (koff) by SPR analysis. A general note: Surface plasmon resonance follows binding to a sensor surface in real time, without labels.
T1 sequence (O14744 whole entry): as the sequence (O14744 whole entry) above
T1 sequence (Q9BQA1 whole entry): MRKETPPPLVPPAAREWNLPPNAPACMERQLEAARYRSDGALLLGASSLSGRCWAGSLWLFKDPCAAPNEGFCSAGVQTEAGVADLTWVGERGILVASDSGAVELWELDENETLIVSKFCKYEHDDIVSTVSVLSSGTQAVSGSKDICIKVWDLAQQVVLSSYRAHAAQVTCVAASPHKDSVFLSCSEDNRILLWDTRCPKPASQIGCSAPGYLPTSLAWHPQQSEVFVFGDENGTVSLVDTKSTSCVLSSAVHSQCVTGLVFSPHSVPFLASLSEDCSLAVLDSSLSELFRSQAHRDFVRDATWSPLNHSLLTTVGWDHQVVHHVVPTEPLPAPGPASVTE
A short description of data set [12]: Toxicity in Sprague-Dawley rat assessed as structural changes in stomach at 31.25 to 125 mg/kg, po administered once a day for 14 days by H and E staining based analysis. Format: organism-based. The conditions noted are these: in vivo, 336 h, dose 31.25-125 mg/kg, time 14 day.
Data set [13] deals with PRMT5/MEP50 complex (Homo sapiens, UniProt O14744). Put plainly: Binding affinity to PRMT5/MEP50 (unknown origin) assessed as dissociation constant by SPR analysis. Format: protein-complex assay.
Sequence of PRMT5/MEP50 complex (Homo sapiens, UniProt O14744) (O14744 whole entry): as the sequence (O14744 whole entry) above
Sequence of PRMT5/MEP50 complex (Homo sapiens, UniProt O14744) (Q9BQA1 whole entry, further chain): as the sequence (Q9BQA1 whole entry) above
A short description of data set [14]: Metabolic stability in human liver microsomes assessed as half-life at 1 uM measured upto 240 mins. The data set is classed as ADME, Microsome. For orientation: Liver microsomes are vesicles of endoplasmic reticulum, rich in cytochrome P450 enzymes.
A short description of data set [15]: Toxicity in Sprague-Dawley rat assessed as structural changes in thymus at 31.25 to 125 mg/kg, po administered once a day for 14 days by H and E staining based analysis. The data set is classed as organism-based. The conditions noted are these: in vivo, 336 h, dose 31.25-125 mg/kg, time 14 day.
For data set [16], the system named is Z-138. Briefly: Antitumor activity against human Z138 cells xenografted in female SCID.BG nude mouse assessed as tumor growth inhibition at 25 mg/kg, po administered twice a day for 21 days relative to control. Format: functional. Conditions: Z-138, 504 h, time 21 day, read-out: TGI.
The nature of data set [17]: Metabolic stability in dog liver microsomes assessed as half-life at 1 uM measured upto 240 mins. The data set is classed as ADME, Canis lupus familiaris, Microsome.
Data set [18] in a line: Protein binding in human plasma. Format: ADME, cell-free. The conditions noted are these: read-out: PPB (converted).
For data set [19], the target named is T1, PRMT5/MEP50 complex. Put plainly: Binding affinity to PRMT5/MEP50 (unknown origin) at 5 uM by SPR analysis. Format: protein-complex assay.
A short description of data set [20]: Toxicity in Sprague-Dawley rat assessed as structural changes in caecum at 31.25 to 125 mg/kg, po administered once a day for 14 days by H and E staining based analysis. The data set is classed as organism-based. The conditions noted are these: in vivo, 336 h, dose 31.25-125 mg/kg, time 14 day.
In data set [21] the test system is NCI-H1975. Briefly: Antiproliferative activity against human NCI-H1975 cells measured after 4 to 5 days by CCK-8 assay. The data set is classed as functional, cell-based.
The target in data set [22] is Cytochrome P450 2C9 (Homo sapiens, UniProt P11712). Put plainly: Inhibition of CYP2C9 (unknown origin). Format: ADME.
Sequence of Cytochrome P450 2C9 (P11712 whole entry): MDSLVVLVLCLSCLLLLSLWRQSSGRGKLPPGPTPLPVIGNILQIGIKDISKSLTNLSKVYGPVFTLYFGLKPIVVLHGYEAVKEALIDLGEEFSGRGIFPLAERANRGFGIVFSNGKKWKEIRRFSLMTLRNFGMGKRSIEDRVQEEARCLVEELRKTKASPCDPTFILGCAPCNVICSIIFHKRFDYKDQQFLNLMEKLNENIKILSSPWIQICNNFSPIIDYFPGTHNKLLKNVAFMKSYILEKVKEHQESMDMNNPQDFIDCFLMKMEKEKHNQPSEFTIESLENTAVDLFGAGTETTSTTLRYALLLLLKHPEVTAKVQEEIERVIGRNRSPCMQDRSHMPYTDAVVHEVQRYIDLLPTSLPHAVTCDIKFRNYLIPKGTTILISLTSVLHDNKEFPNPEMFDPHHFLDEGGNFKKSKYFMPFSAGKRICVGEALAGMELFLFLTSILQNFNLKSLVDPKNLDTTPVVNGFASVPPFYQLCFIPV
Data set [23] in a line: Toxicity in Sprague-Dawley rat assessed as structural changes in spleen at 31.25 to 125 mg/kg, po administered once a day for 14 days by H and E staining based analysis. The data set is classed as organism-based. The conditions noted are these: in vivo, 336 h, dose 31.25-125 mg/kg, time 14 day.
Data set [24] in a line: Toxicity in Sprague-Dawley rat assessed as animal death at 31.25 to 125 mg/kg, po administered once a day for 14 days. The data set is classed as organism-based. Conditions: in vivo, 336 h, dose 31.25-125 mg/kg, time 14 day.
Data set [25] relates to NCI-H1299. Put plainly: Antiproliferative activity against human NCI-H1299 cells measured after 4 to 5 days by CCK-8 assay. The data set is classed as functional, cell-based.
The nature of data set [26]: Toxicity in Sprague-Dawley rat assessed as structural changes in bone marrow at 31.25 to 125 mg/kg, po administered once a day for 14 days by H and E staining based analysis. Format: organism-based. The conditions noted are these: in vivo, 336 h, dose 31.25-125 mg/kg, time 14 day.
For data set [27], the system named is Ishikawa. Put plainly: Antiproliferative activity against human Ishikawa cells measured after 4 to 5 days by CCK-8 assay. The data set is classed as functional, cell-based.
Data set [28] is described as follows: Protein binding in mouse plasma. The data set is classed as ADME, cell-free. Conditions: read-out: PPB (converted).
The target of data set [29] is Cytochrome P450 2C8 (Homo sapiens, UniProt P10632). Put plainly: Inhibition of CYP2C8 (unknown origin). Format: ADME.
Sequence of Cytochrome P450 2C8 (P10632 whole entry): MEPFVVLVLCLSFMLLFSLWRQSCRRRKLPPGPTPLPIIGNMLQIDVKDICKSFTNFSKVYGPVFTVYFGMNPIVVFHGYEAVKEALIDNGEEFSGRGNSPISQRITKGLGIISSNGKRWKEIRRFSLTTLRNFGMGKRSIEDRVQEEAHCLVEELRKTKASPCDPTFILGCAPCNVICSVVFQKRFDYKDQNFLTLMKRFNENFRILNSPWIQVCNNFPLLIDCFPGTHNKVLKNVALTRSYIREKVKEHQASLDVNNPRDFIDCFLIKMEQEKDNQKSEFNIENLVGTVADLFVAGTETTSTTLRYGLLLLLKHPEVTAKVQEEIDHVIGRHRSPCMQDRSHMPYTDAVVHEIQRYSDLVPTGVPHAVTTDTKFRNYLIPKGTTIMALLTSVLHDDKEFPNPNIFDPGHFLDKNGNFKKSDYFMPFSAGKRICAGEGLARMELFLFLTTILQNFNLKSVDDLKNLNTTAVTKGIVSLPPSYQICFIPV
Data set [30] relates to T47D. Briefly: Antiproliferative activity against human T47D cells measured after 4 to 5 days by CCK-8 assay. The data set is classed as functional, cell-based.
The subject of data set [31] is Z-138. Put plainly: Antiproliferative activity against human Z138 cells measured after 7 days by CellTiter-Glo luminescence cell viability assay. Format: functional, cell-based. Conditions: Z-138, 168 h.

Sequence of Cytochrome P450 2D6 (P10635 whole entry): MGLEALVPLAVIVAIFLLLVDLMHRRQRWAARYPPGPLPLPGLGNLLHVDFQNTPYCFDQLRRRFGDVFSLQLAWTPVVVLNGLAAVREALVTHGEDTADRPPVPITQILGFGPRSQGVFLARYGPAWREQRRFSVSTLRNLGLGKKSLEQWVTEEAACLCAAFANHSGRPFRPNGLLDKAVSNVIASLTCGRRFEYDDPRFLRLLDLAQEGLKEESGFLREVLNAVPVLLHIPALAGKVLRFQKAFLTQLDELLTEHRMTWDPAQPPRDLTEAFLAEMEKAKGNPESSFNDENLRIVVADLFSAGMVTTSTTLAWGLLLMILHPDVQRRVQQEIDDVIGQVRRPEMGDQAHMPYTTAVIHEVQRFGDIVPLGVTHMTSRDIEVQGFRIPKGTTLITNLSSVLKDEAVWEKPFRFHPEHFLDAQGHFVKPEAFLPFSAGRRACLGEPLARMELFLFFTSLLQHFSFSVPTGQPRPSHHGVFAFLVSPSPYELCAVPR

Take `CC(=O)N1CC2(CC(Nc3cc4c(cn3)C3(CC3)CN(C[C@H](O)CN3CCc5ccccc5C3)C4=O)C2)C1`: the Activity result in data set [1], in data set [7], in [10], in [12], in [15] and in [20] was “Non-toxic” throughout. Besides, the Activity result in data set [23], in data set [24] and in data set [26] was “Non-toxic” throughout. The IC50 (in general, the concentration that inhibits the measured activity by half) in data set [2] was greater than 50000 nM; in data set [5] it was 72.3 nM; in data set [6] it was greater than 50000 nM; in data set [9] it was greater than 50000 nM; in [21], 0.95 nM; in data set [22], greater than 50000 nM. Moreover, the IC50 was 55.6 nM in data set [25], 5.47 nM in data set [27], greater than 50000 nM in data set [29] and 2.25 nM in [30]. In addition, in [3], the inhibition in vivo at 12.5 mg/kg came to 104%. Besides, in [4], the inhibition result is “Active; More Potent Than Gsk3326595”. For the same molecule, the fraction unbound was 0.04 in [8], 0.106 in data set [18] and 0.0701 in data set [28]. In addition, the koff in data set [11] is 3.62 10^-2/s. In [13], the Kd (in general, a measure of binding affinity in units of concentration) worked out at 104 nM. Moreover, the half-life (usually the time needed for the level to fall by half in the phase considered) at 1 µM in data set [14] stood at 0.291 h; in data set [17], 2.54 h. Further, the inhibition in vivo at 25 mg/kg in [16] stood at 106%. Besides, in data set [19], the outcome was Active.
In turn, `CC(=O)N1CCC(Nc2cc(C(=O)NC[C@H](O)CN3CCc4ccccc4C3)ncn2)CC1` [PEMRAMETOSTAT] yielded an IC50 in data set [31] of 25.8 nM.
